Columns and labels:
CD19+CD38+CD27+ ASCs = assay: Survival and apoptosis of differentiated antibody-secreting cells (ASCs) from PBMC, Annexin V/7-AAD; assay type: cell-based, human; settings: added for 12 hours on Day 5
Procedure: (§1) The immunoproteasome plays important roles in T cell differentiation and proliferation and dendritic cell activation and maturation[14],[20],[24]. However, its role in B cell differentiation is not well understood. […] Differentiated ASCs were then exposed to PKS21221 at indicated concentrations and cell survival was determined with Annexin V and 7-aminoactinomycin D (7-AAD) at three-time points (12-h, 24-h, and 48-h after treatment). […] In addition, the cytotoxicity of PKS21221 to different cell populations in PBMC was examined and compared to the cytotoxicity of bortezomib. PBMCs were incubated with PKS21221 or bortezomib, and the viability was assessed in T cells (CD3^+), B cells (CD19^+), monocytes (CD14^+) and dendritic cells (CD3^−CD19^−CD14^−CD16^−CD11c^+HLA-DR^+), respectively (Supplementary Fig. 13b–e).
PBMCs were cultured with or without IL-2/R848 for 5 days, followed by 12-h incubation with PKS21221 at different concentrations. a Representative flow cytometry plots of cells treated with IL-2 and R848 in the presence and absence of PKS21221. […] Annexin V^+7-AAD^− cells were referred as “Early apoptosis” population, and Annexin V^+7-AAD^+ cells were referred as “Dead” population. d Percentage of early apoptotic ASCs (left) and dead ASCs (right), after 12-h incubation with PKS21221.
Human peripheral blood samples were obtained from five different healthy volunteers (BWH Specimen Bank). Peripheral blood mononuclear cells (PBMCs) were isolated by density gradient centrifugation using Lymphoprep (StemCell Technologies). PBMCs were cultured at 1.5 × 10^6 cells per mL in RPMI 1640 media (Lonza), supplemented with 10% human serum (GemCell) (10% HS-RPMI), recombinant human IL-2 10 ng per mL (or 100 U per ml, BioLegend) and R848 1 µg per mL (Cayman Chemicals) for 5 days, at 37 °C, 5% CO2. PKS21221 in DMSO, or DMSO only for control, was added to the culture media on day 5, and cells were incubated for additional 12, 24, and 48 h.

[1] = test system: resting CD3+ T cells and CD19+ B cells; assay: Viability assay of human PBMC populations (Fixable Viability dye); assay type: cell-based; settings: 10 nM bortezomib vs 1 μM PKS21221
Procedure: as §1
(1 picture or pasted object on this page, not shown here)

T cells = assay: In vitro T-cell proliferation, anti-CD3/anti-CD28; assay type: cell-based, human; settings: anti-CD3 and anti-CD28 stimulation
Text: (§2) As we observed selective cytotoxicity of PKS21221 in activated B cells and ASCs compared to non-activated B cells, we asked whether this is the case in proliferating T cells. We activated human T cells to proliferate with anti-CD3 and anti-CD28 in the presence or absence of PKS21221 or bortezomib. […] To examine whether these inhibitors are cytotoxic preferentially to proliferating cells, we triggered T-cell proliferation with anti-CD3/anti-CD28 for 4 days (in the absence of inhibitors), treated the cells with PKS21221 for the next 24 h and determined cell survival with Annexin V and 7-AAD (Fig. 6c, d).
(§3) Fig. 6 Effect of PKS21221 and bortezomib (BTZ) on T-cell proliferation. T cells were isolated from human PBMC and stimulated with anti-CD3 (1 µg per ml) and anti-CD28 (1 µg per ml) for 4 days. […] Apoptosis c and viability d were assessed in proliferating and non-proliferating population of T cells. […]
(§4) T cells were isolated from human PBMCs using Human T-cell Isolation kit (StemCell Technologies, Cat#17951). […] Cells were counted and loaded with 5 μM CellTrace Violet (Thermo Fisher) in phosphate buffered saline (PBS) for 10 min at 37 °C, followed by wash in 10% fetal calf serum (FCS)-supplemented RPMI 1640 media. […] The viability and apoptosis were assessed using Annexin V Apoptosis Detection Kit (BD Biosciences). […]

proliferating T cells = assay: Apoptosis and viability of proliferating vs non-proliferating T cells; assay type: cell-based, human; settings: 4 days anti-CD3/anti-CD28, then 24 h; PKS21221 1 µM, BTZ 10 nM
Text: as §2, §3, §4

For `CC(C)C[C@H](NC(=O)[C@H](Cc1ccccc1)NC(=O)c1cnccn1)B(O)O` [Bortezomib, bortezomib, reference compound], the “ASC percentage in ASC differentiating culture” value (CD19+CD38+CD27+ ASCs) was “decreased the percentage of”, the “cytotoxicity to resting CD3+ T cells and CD19+ B cells” value [1] was “more cytotoxic at 10 nM than PKS2122 at 1 µM” and the “proliferation of T cells” value (T cells) was “inhibited proliferation of T cells in a dose-dependent manner”. For the same molecule, the “apoptosis and cell death, proliferating vs non-proliferating T cells” value (proliferating T cells) was “induced apoptosis and cell death to a greater extent in proliferating T cells than in non-proliferating T cells”.

Source: PMC5700161, “Structure of human immunoproteasome with a reversible and noncompetitive inhibitor that selectively inhibits activated lymphocytes” (Nature Communications, 2017)
